From US5869514A, “Terpenoidic derivatives useful as antitumor agents” (Pharmacia & Upjohn S.p.A., priority 1995, dated 1999)

How the values were obtained:
Calf brain tubulin = test: Tubulin assembly test (repolymerization in presence of CaCl2, turbidity at 340 nm); format: biochemical; conditions: tubulin 1 mg/ml, 1 mM GTP, after 4 mM CaCl2
Protocol: (a) Tubulin Assembly Test
Calf brain tubulin was prepared by two cycles of assembly-disassembly (Shelanski M. L., Gaskin F. and Cantor C. R., Proc. Natl.Acad.Sci. U.S.A. 70, 765-768, 1973; and stored in liquid nitrogen in MAB (0.1M MES, 2.5 mM EGTA, 0.5 mM MgSO4, 0.1 mM EDTA, 0.1 mM DTT, pH 6.4).
All the experiments were carried out on protein stored for less than 4 weeks.
Before each experiment, tubulin was kept 30 min at 4° C. Assembly was monitored by the method of Gaskin et al. (Gaskin F., Cantor C. R. and Shelanski M. L., J.Molec.Biol. 89, 737-758, 1974).
The cuvette (1 cm path) containing tubulin (1 mg/ml) and 1 mM GTP was shifted to 37° C. and continuous turbidity measurements were made at 340 nm on a Perkin-Elmer 557 double wavelength, double beam spectrophotometer equipped with an automatic recorder and a thermostatically regulated sample chamber.
After 30 minutes, 4 mM CaCl2 was added and depolymerisation was measured for 10 minutes as decreased turbidity.
At regular intervals of 15 minutes scaled doses of the tested compounds were added and variations in the turbidity were monitored.
Data are expressed as percentage of repolymerization induced by the tested compounds.

[1] = tested on: L1210 murine leukemia cell line; test: Cell cultures and drug sensitivity assay (inhibition of cell growth, cell counting); format: cell-based; conditions: Mus musculus; L1210 cells, 48 h treatment; read-out: ID50 (nM) L1210
Protocol: (§1) (b) Cell Cultures and Drug Sensitivity Assay
(§2) L1210 and L1210/DX (Doxorubicin resistant) murine leukemia cell lines were grown in vitro as a stationary suspension culture in RPMI 1640 medium (GIBCO, Grand island, N.Y.) supplemented with 10% fetal calf serum (Flow, Irwine, UK), 2 mM L-glutamine (Gibco Europe, Glasgow, UK), 10 μM β-mercaptoethanol, 100 Units/ml penicillin and 100 μg/ml streptomycin.
(§3) Exponentially growing cells were seeded (1×10^5 cell/ml) in 12-well/plates (Costar, Cambridge, Mass.) and various concentrations of tested compounds were added immediately after seeding.
(§4) The plates were incubated at 37° C. in a humidified, 5% CO2 atmosphere for 48 hr.
(§5) Inhibition of cell growth was evaluated by counting surviving cells in a ZBI Coulter Counter (Hialeah, Fla.). The 50% inhibitory concentration (IC50) was calculated on the derived concentration-response curve. For each tested compound concentration, duplicate cultures were used.

[2] = tested on: L1210/DX (Doxorubicin resistant) murine leukemia cell line; test: Cell cultures and drug sensitivity assay (inhibition of cell growth, cell counting), Doxorubicin resistant cells; format: cell-based; conditions: for R.I: L1210/DX versus L1210, 48 h treatment; for IC50: Mus musculus, L1210/DX cells (Doxorubicin resistant), 48 h treatment, read-out: ID50 (nM) L1210/DX
Protocol: as §1, §2, §3, §4, §5

Compound	tubulin assembly (%) (percentage of repolymerization induced by the tested compound) (Calf brain tubulin; dosage 4 μM)	tubulin assembly (%) (percentage of repolymerization induced by the tested compound) (Calf brain tubulin; dosage 40 μM)	IC50 [1] [nM]	R.I [2]	IC50 [2] [nM]	tubulin assembly (%) (percentage of repolymerization induced by the tested compound) (Calf brain tubulin; dosage 3.9 μM)	tubulin assembly (%) (percentage of repolymerization induced by the tested compound) (Calf brain tubulin; dosage 39 μM)
COC(=O)C1=CC2C(CC(OC(=O)C=Cc3cn(C)cn3)C3(C)C=CC1(O)O3)C(C)=CCC2C(C)C (single isomer, unassigned; (-)) [Sarcodictyin A]	70	162	539 ± 97.7	1.4	754 ± 80.3		
COC(=O)C1=CC2C(CC(OC(=O)C=Cc3cn(C)cn3)C3(C)C=CC1(O)O3)C(C)=CC(O)C2C(C)C (single isomer, unassigned; (-)) [Sarcodictyin C]			408 ± 21.3	14.2	5790 ± 183	112	173
